What all share (assay): Cell death assay (PI staining), radiation-resistant cells
What all share (format): cell-based, human

Experiment [1] relates to HR1 cells. The following applies: HR1 compared to astrocytes. As for the experimental part:
(§1) As with naïve cells, we determined the IC50 for DR1, DR2, […] and their SI compared to astrocytes.
(§2) Figure 8 C29 is efficient on radioresistant MB cell lines. (A) Cell death after 48 h of treatment with control (DMSO, CT) or C29 1, 2.5, or 5 µM on radiation-resistant cells (RR) and normal cells (N), n = 3. Statistics were performed using the one-way method ANOVA. * p < 0.05, ** p < 0.01, *** p < 0.001. For this figure, DR1 = D1, DR2 = D2, HR1 = H1, HR2 = H2, and C8D1A = C8. (B) Proliferation of DR1/DR2 (A) and HR1/HR2 (B) radio-resistant cells after 1 µM C29 treatment or control (DMSO), n = 3. (C) Clonogenic assay on DR1, DR2 (n = 3) and HR1, HR2 (n = 3) cells after treatment with control (DMSO) or C29 (1 µM or 2.5 µM). (D) Cell migration through the Boyden chamber of DR1 and DR2 cells specifically attracted by 200 ng/mL CXCL8. Cells were treated with control (DMSO) or C29 (1 and 2.5 µM). Results are expressed as percentage of control (n = 3). Scale = 1000 μm. Statistics were performed using Student t-test for 2 comparisons only or ANOVA test for multiple comparisons. * p < 0.05, ** p < 0.01, *** p < 0.001. […]
(§3) each month by using PlasmoTest Kit (#10L07‐MM, InvivoGen, Toulouse, France). Daoy and ONS‐76 belong to the Shh genetic subgroup, D341‐Med and HD‐MB03 to group 3.
(§4) Mouse cerebellar astrocytes C8D1A (CRL ‐2541) were purchased from the American Tissue Culture Collection ATCC. These cells were cultured in DMEM (1X) + GlutaMAX (Invitrogen) medium supplemented with 10% FBS (D. Dutscher). Cells were cultured at 37°C in a 5% CO2 incubator. […]
(§5) After 2 days, cells were treated with control (DMSO) or C29
(§6) (1, 2∙5, 5μM) for 48 hours. After 48 hours, the medium was recovered, and the adherent cells were dissociated and added to the supernatant. Cell death was detected by PE chan‐ nel using FACS Cytoflex (Beckman) immediately after labelling the cells with 1ug/ml pro‐ pidium iodide (Miltenyi Biotec). Data were presented with the percentage of cell death after subtracting the percentage of untreated and unlabelled dead cells.
(§7) Migration in Boyden chambers
(§8) The cells were deprived of serum overnight. 50000 cells were plated in triplicate in serum‐free medium into the upper compartment of pre‐wetted inserts (24‐well plate fit, translucent PET membrane, 8∙0 μ m pore size, Falcon, Thermo Fisher). Medium containing 10% serum or CXCL8 (200ng/ml, Peprotech) was added to the lower compartment. After 24 hours, migrated cells were fixed with 3% paraformaldehyde and stained with Crystal […]
Violet. […]
(§9) 5000 cells were plated in 48 multi‐well plates coated with agarose 0∙8%. […]

For experiment [2], the system named is DR2 cells. The following applies: DR2 compared to astrocytes. Here is the method:
as §1, §2, §3, §4, §5, §6, §7, §8
Violet. […]
as §9

Experiment [3] concerns HR2 cells. The following applies: HR2 compared to astrocytes. Here is the method: as §1, §2, §3, §4, §5, §6, §7, §8
Violet. […]
as §9

Experiment [4] concerns DR1 cells. The note with it: DR1 compared to astrocytes. As for the experimental part:
as §1, §2, §3, §4, §5, §6, §7, §8
Violet. […]
as §9

As to `O=C(Nc1cccc(Cl)c1)Nc1nc2ccc([N+](=O)[O-])cc2s1` [C29, 1-(3-chlorophenyl)-3-(6-nitrobenzo[d]thiazol-2-yl) urea], the “Selectivity index (SI)” value in experiment [1] came out at 7.7; in experiment [2], 3.9; in experiment [3], 2.8; in experiment [4] it was 3.9.
